How the values were obtained:
[1] = system: human TERT expression (hTERT mRNA); assay: Quantitative real-time RT-PCR of hTERT mRNA expression (Ct, transcripts) in compound-treated cells; assay type: cell-based; details: quantitative real-time RT-PCR
In short: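 Read-out is cycle threshold, the cycle at which probe fluorescence released by Taq 5′-nuclease activity crosses a set level; Ct falls as hTERT mRNA rises. cDNA of treated and untreated cells was compared, with starting transcripts quantified against a known-cDNA standard curve.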

viable cells in culture = assay: Cell viability assay (CellTiter-Glo Luminescent Cell Viability Assay, ATP quantitation, percent of vehicle control)

SMILES	Average Number of hTERT Transcripts [1]	Average Cell Viability after 24 Hours (% DMSO) (viable cells in culture)
c1ccc(-c2c(-c3ccccc3)n(Cc3ccco3)c3ncn4nc(-c5ccncc5)nc4c23)cc1 [compound 1304]	59.37	89.74
CCOC(=O)c1cc2ccc(OC(=O)COc3ccc(C)cc3)cc2oc1=O [compound 1307]	8.66	80.83
CCOC(=O)COc1ccc2c(C)cc(=O)oc2c1C [compound 1308]	3.16	90.12
CN(C(=O)c1cc2ccccc2oc1=O)C1(C)CCS(=O)(=O)C1 (stereo not drawn) [compound 1309]	10.58	119.29
CCc1cc(=O)oc2c(C)c(OC(=O)c3ccccc3)ccc12 [compound 1310]	5.00	105.11
COc1cc([N+](=O)[O-])cc2cc(C(=O)NCCCN3CCOCC3)c(=O)oc12 [compound 1311]	4.38	92.83
Cc1noc(-c2cc(Br)cc(Br)c2O)n1 [compound 1312]	51.29	67.76
O=C1CC(N2CCN(Cc3ccc(Cl)cc3)CC2)C(=O)N1c1ccccc1 (stereo not drawn) [compound 1313]	7.45	112.79
Cc1sc(CO)c(Sc2ccccc2)c1C(=O)O [compound 1314]	8.82	109.57
CC1CCc2c(sc(NC(=O)c3cccnc3)c2C(=O)Nc2cccc(Cl)c2)C1 (stereo not drawn) [compound 1315]	26.20	58.86
O=C(Nc1nccs1)c1sc2ccccc2c1Cl [compound 1316]	13.39	73.91
Nc1c(C(=O)Nc2ccc(Cl)c(Cl)c2)sc2nc3c(cc12)CCCC3 [compound 1317]	10.56	88.17
CC(=O)Oc1ccccc1C(=O)Nc1ccc(F)cc1F [compound 1318]	13.40	59.35
CC1=NN(C(=O)c2cc(Br)ccc2O)C(O)(c2ccccc2)C1 (stereo not drawn) [compound 1319]	15.04	61.93
Cc1ccn2c(-c3csc(Nc4ccc(C(=O)O)cc4)n3)c(C)nc2c1 [compound 1320]	8.00	90.39
COC(=O)C1=C(C)Nc2nnnn2C1c1ccccc1OC (stereo not drawn) [compound 1321]	22.30	124.73
COc1ccc(-c2cc3ccccn3c2C)cc1 [compound 1322]	20.10	81.69
Cc1ccc(S(=O)(=O)NC(=O)c2ccccc2O)cc1 [compound 1323]	11.00	121.47

SMILES	Average Number of hTERT Transcripts [1]	Average Cell Viability after 24 Hours (% DMSO) (viable cells in culture)
O=C1c2oc3ccccc3c(=O)c2C(c2cccc(OCc3ccccc3)c2)N1c1nccs1 (stereo not drawn) [compound 1324]	8.42	57.19
CCn1ncc([N+](=O)[O-])c1C(=O)Nc1sc2c(c1C#N)CCCCCC2 [compound 1325]	29.36	94.20
CCc1ccc(NC2c3ccccc3C(=O)N2Cc2ccc3c(c2)OCO3)cc1 (stereo not drawn) [compound 1326]	8.73	86.99
Cc1cc(Br)ccc1NC(=O)Cn1ncc2c(=O)oc3ccccc3c21 [compound 1327]	4.67	101.34
COc1ccc(Br)cc1CNC(=O)Cn1ncc2c(=O)oc3ccccc3c21 [compound 1328]	5.42	71.81
CC1(C(=O)O)CC(=O)N=C2C=CC(Cl)=CN21 (stereo not drawn) [compound 1329]	3.63	94.31
COc1cc(C(=O)Nc2ccc(-c3nc4ccccc4[nH]3)cc2)ccc1OC(C)=O [compound 1330]	3.59	97.84
COC(=O)CSc1nnc(-c2sc3ccccc3c2Cl)n1C [compound 1331]	32.92	90.44
C=CCc1c(C)nc(SCC(=O)Nc2cc(Cl)cc(Cl)c2)[nH]c1=O [compound 1332]	12.68	94.78
Cc1ccc(-c2noc(CN3CCOCC3)n2)cc1 [compound 1333]	3.71	96.79
O=C(Nc1cc([N+](=O)[O-])ccc1O)c1cccc(F)c1 [compound 1334]	31.04	75.50
O=[N+]([O-])c1ccc(NS(=O)(=O)c2cccc(C(F)(F)F)c2)cc1 [compound 1335]	11.78	75.24
CC(=O)N1C(=O)C(=O)c2cc(Cl)ccc21 [compound 1336]	7.64	100.05
CCOC(=O)COc1ccc2c(=O)c(-c3ccccc3Cl)c(C)oc2c1C [compound 1337]	30.15	67.33
Cc1ccc(NC(=O)c2cc([N+](=O)[O-])ccc2O)cc1 [compound 1338]	49.42	80.45
O=C(NC(=S)Nc1cc(Cl)cc(Cl)c1)c1cccc(F)c1 [compound 1339]	7.09	68.94
CCC(C)Cn1c(CO)nc2ccccc21 (stereo not drawn) [compound 1340]	4.37	106.88
Cc1ccc(N)cc1S(=O)(=O)N1CCCCC1 [compound 1341]	4.50	110.20
